Source: patent US11840686B2, “Modulation of prekallikrein (PKK) expression” (Ionis Pharmaceuticals, Inc., priority 2013, dated 2023)
Strand notation (5' to 3'): a small letter for the sugar, then the base; units joined by * are phosphorothioate-linked, units joined directly phosphodiester-linked; [ ] holds rarer units or linkages, { } end groups; capitals alone tell only the bases. e = 2'-O-(2-methoxyethyl) (MOE); [5mC] = 5-methylcytosine; d = 2'-deoxy (DNA)

Test system: human PKK mRNA
Assay: Antisense inhibition of human PKK mRNA in HepaRG cells, 5,000 nM (Example 2)
Assay type: cell-based
Procedure, shortened: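 HepaRG cells, 20,000 per well, were electroporated with 5,000 nM MOE gapmer (phosphorothioate, 5-methylcytosine) and incubated about 24 hours. PKK mRNA was quantified by qRT-PCR with primer probe set RTS3454, normalized to RIBOGREEN total RNA, and expressed as percent inhibition versus untreated controls.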

[1] = HepaRG cells, electroporation with 5,000 nM antisense oligonucleotide, approximately 24 hours, PKK mRNA by RT-PCR (RTS3454), relative to untreated control cells, Table 5 experiment
[2] = HepaRG cells, electroporation with 5,000 nM antisense oligonucleotide, approximately 24 hours, PKK mRNA by RT-PCR (RTS3454), relative to untreated control cells, Table 6 experiment
[3] = human PKK mRNA, HepaRG cells, 5,000 nM antisense oligonucleotide, Table 18
[4] = HepaRG cells, 5,000 nM antisense oligonucleotide, 5-10-5 gapmers, Table 16
[5] = human PKK mRNA in HepaRG cells, 5-10-5 gapmers, Table 14
[6] = Table 8, HepaRG cells, electroporation with 5,000 nM antisense oligonucleotide, approx. 24 hours, PKK mRNA by RT-PCR (RTS3454), relative to untreated control cells
[7] = Table 9 experiment, HepaRG cells, 20,000 cells per well, electroporation with 5,000 nM antisense oligonucleotide, approx. 24 hours, PKK mRNA by RT-PCR (RTS3454), relative to untreated control cells
[8] = Table 10 experiment, HepaRG cells, 20,000 cells per well, electroporation with 5,000 nM antisense oligonucleotide, approx. 24 hours, PKK mRNA by RT-PCR (RTS3454), relative to untreated control cells
[9] = human PKK mRNA, HepaRG cells, 5-10-5 motif oligonucleotides targeting SEQ ID NO: 1 and 10
[10] = HepaRG cells, electroporation, 5,000 nM antisense oligonucleotide, approx. 24 hours, primer probe set RTS3454, relative to untreated control cells, Table 11
[11] = HepaRG cells, electroporation, 5,000 nM antisense oligonucleotide, approx. 24 hours, primer probe set RTS3454, relative to untreated control cells, Table 12

547081 (e[5mC]*eT*eG*eT*eA*dG*dT*d[5mC]*d[5mC]*dA*d[5mC]*dT*dA*d[5mC]*dA*e[5mC]*eA*eG*e[5mC]*eA; antisense) [compound 547081]
% inhibition (HepaRG cells, 5,000 nM antisense oligonucleotide, 5-10-5 gapmers, Table 17): 83%

547303 (antisense eT*eT*e[5mC]*eT*e[5mC]*d[5mC]*dA*dT*dG*dT*d[5mC]*dA*dT*dT*dG*eA*eT*eT*eG*eA) [compound 547303]
% inhibition [1]: 72%

546210 (antisense e[5mC]*e[5mC]*eA*eA*eT*dT*dT*d[5mC]*dT*dG*dA*dA*dA*dG*dG*eG*e[5mC]*eA*e[5mC]*eA) [compound 546210]
% inhibition [2]: 79%

548734 (DNA eT*e[5mC]*eA*e[5mC]*dT*dG*dT*dA*d[5mC]*dT*dA*dG*dT*dT*eT*e[5mC]*e[5mC]; antisense) [compound 548734]
% inhibition [3]: 51%

547711 (antisense e[5mC]*e[5mC]*eT*eT*eT*dA*dG*d[5mC]*d[5mC]*dA*d[5mC]*dT*d[5mC]*d[5mC]*dT*e[5mC]*eT*eT*eG*e[5mC]) [compound 547711]
% inhibition [4]: 45%

547593 (eT*eT*e[5mC]*e[5mC]*eT*dA*dT*dA*dA*d[5mC]*dT*dA*dT*dA*dA*e[5mC]*eA*eG*eT*eA; antisense) [compound 547593]
% inhibition [5]: 29%

546260 (eG*eA*eA*eA*eA*dA*d[5mC]*dT*dG*dA*d[5mC]*dA*dG*d[5mC]*dG*eA*eA*eT*e[5mC]*eA; antisense) [compound 546260]
% inhibition [6]: 84%

547458 (antisense eT*eA*eT*e[5mC]*eA*dA*dG*dG*d[5mC]*dG*dA*dT*dA*dT*d[5mC]*eA*eT*eG*eA*eT) [compound 547458]
% inhibition [7]: 84%
% inhibition [8]: 64%

547640 (eT*eG*eT*e[5mC]*e[5mC]*dT*dA*dT*dA*dA*d[5mC]*dT*dA*dT*dA*eA*e[5mC]*eA*eG*eT; antisense) [compound 547640]
% inhibition [9]: 13%

547502 (antisense eT*e[5mC]*eA*eG*eG*dT*dT*dG*dT*dA*dA*dA*dA*dA*dT*eT*eG*e[5mC]*e[5mC]*eT) [compound 547502]
% inhibition [10]: 64%

547531 (antisense eT*eT*eA*eT*eT*dT*d[5mC]*dA*d[5mC]*dA*dA*d[5mC]*dA*d[5mC]*dA*e[5mC]*eA*eG*eT*e[5mC]) [compound 547531]
% inhibition [11]: 69%

546888 (eT*e[5mC]*e[5mC]*eT*eA*dT*dG*dT*d[5mC]*dA*d[5mC]*dT*dG*dT*dA*e[5mC]*e[5mC]*eT*eA*eT; antisense) [compound 546888]
% inhibition [9]: 78%

546914 (eA*eT*eA*eT*e[5mC]*dA*d[5mC]*dT*dG*dT*dA*d[5mC]*d[5mC]*dT*dA*eT*eA*eT*e[5mC]*eA; antisense) [compound 546914]
% inhibition [4]: 52%

546340 (antisense eT*eA*eA*eT*e[5mC]*dT*dT*dG*dA*dT*dA*dT*d[5mC]*dT*dT*eT*eT*e[5mC]*eT*eG) [compound 546340]
% inhibition [7]: 30%
% inhibition [8]: 56%

547295 (antisense eA*e[5mC]*e[5mC]*eT*e[5mC]*dA*dT*d[5mC]*dT*dG*dG*d[5mC]*dA*dG*dT*eA*eT*eT*eG*eG) [compound 547295]
% inhibition [1]: 88%

546329 (antisense e[5mC]*e[5mC]*eT*eT*e[5mC]*dG*dA*dG*dA*dA*dG*d[5mC]*d[5mC]*d[5mC]*d[5mC]*eA*eT*e[5mC]*e[5mC]*eG) [compound 546329]
% inhibition [7]: 18%
% inhibition [8]: 8%

547624 (antisense eA*eT*eG*eT*e[5mC]*dA*d[5mC]*dT*dG*dT*dA*d[5mC]*d[5mC]*dT*dA*eT*eA*eA*e[5mC]*eT) [compound 547624]
% inhibition [5]: 64%

546325 (antisense e[5mC]*eA*eG*eT*eT*dG*dG*dT*dA*dT*dA*dA*dA*dT*dT*eG*eT*eG*e[5mC]*eT) [compound 546325]
% inhibition [7]: 74%
% inhibition [8]: 79%

547494 (antisense eT*eG*eG*eT*eG*dA*d[5mC]*dT*dG*d[5mC]*dA*dT*d[5mC]*dT*dG*eA*eG*e[5mC]*eT*eT) [compound 547494]
% inhibition [10]: 70%

548755 (antisense eT*eA*eT*e[5mC]*dA*d[5mC]*dT*dG*dT*dA*d[5mC]*dT*dA*dG*eT*eT*eT*e[5mC]) [compound 548755]
% inhibition [3]: 20%

547272 (e[5mC]*eA*e[5mC]*eT*eT*dA*dA*dA*dA*dA*dT*dG*dA*dA*d[5mC]*eG*eG*eT*e[5mC]*eT; antisense) [compound 547272]
% inhibition [1]: 82%

547418 (e[5mC]*eA*e[5mC]*eT*eT*dA*d[5mC]*dA*d[5mC]*dT*dT*d[5mC]*dT*d[5mC]*dT*eT*e[5mC]*e[5mC]*eT*eT; antisense) [compound 547418]
% inhibition [6]: 0%

547543 (antisense eT*eT*eT*eT*e[5mC]*d[5mC]*dA*dT*dG*d[5mC]*dA*dT*dA*d[5mC]*dT*e[5mC]*eG*e[5mC]*e[5mC]*eT) [compound 547543]
% inhibition [11]: 54%

548779 (antisense eG*eT*e[5mC]*e[5mC]*dT*dA*dT*dA*dA*d[5mC]*dT*dA*dT*eA*eA*e[5mC]*eA) [compound 548779]
% inhibition [3]: 0%

547329 (antisense eT*eT*eA*eT*eT*dT*dG*dA*dT*dG*dA*d[5mC]*d[5mC]*dA*d[5mC]*eA*eT*eT*eG*e[5mC]) [compound 547329]
% inhibition [2]: 24%

546902 (e[5mC]*eA*e[5mC]*eT*eG*dT*d[5mC]*d[5mC]*dT*dA*dT*dA*dA*d[5mC]*dT*eA*eT*eA*eA*e[5mC]; antisense) [compound 546902]
% inhibition [9]: 71%

547614 (antisense e[5mC]*e[5mC]*eT*eA*eT*dA*dT*d[5mC]*dA*d[5mC]*dT*dG*dT*dA*d[5mC]*e[5mC]*eT*eG*eT*eA) [compound 547614]
% inhibition [5]: 81%

546263 (eG*eG*eA*eG*eT*dA*dA*dA*dG*dA*dA*dT*dA*dA*dG*eT*eG*eA*eA*eA; antisense) [compound 546263]
% inhibition [6]: 0%

547352 (antisense e[5mC]*e[5mC]*eG*eG*eT*dA*d[5mC]*dT*d[5mC]*dT*dG*d[5mC]*d[5mC]*dT*dT*eG*eT*eG*eA*eA) [compound 547352]
% inhibition [2]: 94%

547461 (antisense eG*eT*eA*eA*eT*dT*d[5mC]*dA*dA*dA*dG*dG*dA*dG*d[5mC]*e[5mC]*eT*eG*eG*eA) [compound 547461]
% inhibition [7]: 49%
% inhibition [8]: 55%

547370 (e[5mC]*eA*eA*eA*eA*dG*d[5mC]*dA*dT*d[5mC]*dT*dG*dG*dA*dG*eT*eG*eA*eG*eA; antisense) [compound 547370]
% inhibition (Table 7, HepaRG cells, electroporation with 5,000 nM antisense oligonucleotide, approx. 24 hours, PKK mRNA by RT-PCR (RTS3454), relative to untreated control cells): 73%

548782 (antisense eT*eA*e[5mC]*e[5mC]*dT*dA*dT*dA*dA*d[5mC]*dT*dA*dT*eA*eA*e[5mC]*eA) [compound 548782]
% inhibition [3]: 0%

547623 (antisense eT*eG*eT*e[5mC]*eA*d[5mC]*dT*dG*dT*dA*d[5mC]*d[5mC]*dT*dA*dT*eA*eA*e[5mC]*eT*e[5mC]) [compound 547623]
% inhibition [5]: 81%

548765 (antisense eA*eT*eA*eT*d[5mC]*dA*d[5mC]*dT*dG*dT*d[5mC]*d[5mC]*dT*eA*eT*eA*eA) [compound 548765]
% inhibition [3]: 0%

547411 (e[5mC]*eA*eT*e[5mC]*eT*dT*dT*dG*dT*dG*d[5mC]*dA*dA*dG*dT*e[5mC]*eT*e[5mC]*eT*eT; antisense) [compound 547411]
% inhibition [6]: 79%

547533 (antisense eT*eT*eT*eT*eG*d[5mC]*dT*dT*dG*dG*d[5mC]*dT*dT*d[5mC]*dA*eA*eT*eA*eT*eT) [compound 547533]
% inhibition [11]: 23%

546943 (e[5mC]*eA*eG*eT*eT*dT*dG*dG*d[5mC]*d[5mC]*dT*dT*dT*d[5mC]*d[5mC]*eA*eT*e[5mC]*eT*e[5mC]; antisense) [compound 546943]
% inhibition [4]: 54%

546321 (antisense eG*eA*eA*eG*eG*dT*dA*dG*dG*d[5mC]*dA*dT*dA*dT*dT*eG*eG*eT*eT*eT) [compound 546321]
% inhibition [7]: 53%
% inhibition [8]: 56%

547287 (antisense eG*eT*e[5mC]*eA*eG*dA*d[5mC]*dA*dT*d[5mC]*d[5mC]*dA*d[5mC]*dA*dG*eG*eA*eA*eA*e[5mC]) [compound 547287]
% inhibition [1]: 69%
